The text below walks through data of patent publication US20240208969A1, “SUBSTITUTED FUSED BICYCLIC COMPOUNDS AS PARP INHIBITORS AND THE USE THEREOF” (IMPACT THERAPEUTICS (SHANGHAI), INC., priority 2021, published 2024).

The structures appear in SMILES notation. A value given as a limit tells only on which side of the number the result lay.

In general, IC50 refers to the concentration at which inhibition is half-maximal. A high value points to weaker potency in that assay.

The subject of this assay is MDA-MB-436 cells. Description: Inhibition of proliferation of human breast cancer MDA-MB-436 cell line (CCK-8, 7 days). In kind it is cell-based. The note with it: Homo sapiens, 168 h, proliferation of MDA-MB-436, 7 days. As for the experimental part: The cells were cultured in complete medium (DMEM medium +10% FBS+Insulin+glutathione). When the confluence reached about 80%, cells were digested and gently dispensed from the bottom of the dish with a 1 mL pipette. Cell suspension was collected and centrifuged at 500 rpm for 3 min. The supernatant was discarded, and the cell pellet were re-suspended in complete medium. The cells were seeded into a culture dish at an appropriate proportion, and then cultured in a 5% CO2 incubator at 37° C. The assay was carried out when the cells were in optimum condition and the confluence was reached 80%. Cells were harvested in the logarithmic growth phase by using 1 mL pipette gently and then centrifugated at 500 rpm for 3 min. The cells were resuspended by using refresh medium after removing the supernatant and then the cells were counted. The cells were seeded at 3000/well in a 96 well plate and incubated at 37° C. 5% CO2 incubator overnight. In the second day, cells were treated with compound at 8 serially diluted dose with 1000×final concentration in 100% DMSO. The compound was prepared as below: 1000×dilution tested compound solution to 40×test compound solution by adding 5μL, 1000×compound solution to 120 μL Medium (25-fold dilution). The solution was mixed by oscillation. DMSO was used as the control.
The medium was removed from the wells in the plate after the plate was taken out from incubator. Then, fresh medium of 195 μL/per well was added to the 96 well plate. 5μL/per well of 40×test compound solution was added into the 96 well plate. Finally, the plate was incubated for 7 days in a 37° C. 5% CO2 incubator. The medium containing compound was changed once on the fourth day. After 7 days, 20 μL of CCK-8 was added to each well and shake gently, then was cultured for 4 hours. The plate was shaken for 5 min after incubation, the absorbance values of 450 nm. and 650nm wavelengths were recorded respectively (OD=absorbance value of 450 nm−absorbance value of 650 nm) by using the multifunction readout instrument.
Data were analyzed by software GraphPad Prism 6.0. The inhibitory activity of compounds on cell proliferation was plotted using cell survival rate against the compound concentration as coordinates. Cell survival rate %=(ODcompound−ODbackground)/(ODDMSO−ODbackground)×100. The IC50 value was fitted by the s-shaped dose response curve equation: Y=100/(1+10^(log C−log IC50)), and C was the compound concentration.
Table 2 summarizes the inhibitory effect data (IC50) of the compounds on the proliferation of human breast cancer cells MDA-MB-436, wherein ++++ indicates 1<IC50≤10 nM; +++ indicates 10 nM<IC50≤100 nM; ++ indicates 100 nM<IC50≤1 μM; + indicates IC50>1 μM.
`CCn1c(=O)[nH]c2cc(CN3CCN(c4c(C)cc(C(=O)NC)nc4C)CC3)ccc2c1=O` [Example 72, 5-(4-((3-ethyl-2,4-dioxo-1,2,3,4-tetrahydroquinazolin-7-yl)methyl)piperazin-1-yl)-N,4,6-trimethylpicolinamide]: the IC50 was greater than 1000 nM.
In turn, `CCn1c(=O)[nH]c2nc(CN3CCN(c4ccc(C(=O)NC)nc4C)CC3)ccc2c1=O` [Example 74, 5-(4-((3-ethyl-2,4-dioxo-1,2,3,4-tetrahydropyrido[2,3-d]pyrimidin-7-yl)methyl)piperazin-1-yl)-N,6-dimethylpicolinamide] registered an IC50 greater than 1000 nM.
As for `CCn1c(=O)[nH]c2cc(CN3CCN(c4ncc(C(=O)NC)cc4C)CC3)ccc2c1=O` [Example 79, 6-(4-((3-ethyl-2,4-dioxo-1,2,3,4-tetrahydroquinazolin-7-yl)methyl)piperazin-1-yl)-N,5-dimethylnicotinamide], the figure is greater than 1000 nM; as for `CCn1c(=O)[nH]c2cc(CN3CCN(c4ccc(C(=O)NC)nc4C(C)C)CC3)ccc2c1=O` [Example 80, 5-(4-((3-ethyl-2,4-dioxo-1,2,3,4-tetrahydroquinazolin-7-yl)methyl)piperazin-1-yl)-6-isopropyl-N-methylpicolinamide], greater than 1000 nM.
As for `CCn1c(=O)[nH]c2cc(CN3CCN(c4ccc(C(=O)NC)nc4C)CC3)ncc2c1=O` [Example 81, 5-(4-((3-ethyl-2,4-dioxo-1,2,3,4-tetrahydropyrido[4,3-d]pyrimidin-7-yl)methyl)piperazin-1-yl)-N,6-dimethylpicolinamide], the figure is 10 to 100 nM.
Take `CCNC(=O)c1ccc(N2CCN(Cc3cc(F)c4c(=O)n(CC)c(=O)[nH]c4c3)CC2)c(C)n1` [Example 82, N-ethyl-5-(4-((3ethyl-5-fluoro-2,4-dioxo-1,2,3,4-tetrahydroquinazolin-7-yl)methyl)piperazin-1-yl)-6-methylpicolinamide]: the IC50 was in the range of 10 to 100 nM.
Molecule `CNC(=O)c1ccc(N2CCN(Cc3ccc4c(=O)n(CC(F)(F)F)c(=O)[nH]c4c3)CC2)c(C)n1` [Example 87, 5-(4-((2,4-dioxo-3-(2,2,2-trifluoroethyl)-1,2,3,4-tetrahydroquinazolin-7-yl)methyl)piperazin-1-yl)-N,6-dimethylpicolinamide] returned a 50% inhibitory concentration (IC50) greater than 1000 nM.
As for `CCn1c(=O)[nH]c2cc(CN3CCN(c4ccc(C(=O)NC)nc4Br)CC3)ccc2c1=O` [Example 94, 6-bromo-5-(4-((3-ethyl-2,4-dioxo-1,2,3,4-tetrahydroquinazolin-7-yl)methyl)piperazin-1-yl)-N-methylpicolinamide], the figure is 10 to 100 nM; as for `CCNC(=O)c1ccc(N2CCN(Cc3ccc4c(=O)n(CC)c(=O)[nH]c4c3)CC2)c(Br)n1` [Example 95, 6-bromo-N-ethyl-5-(4-((3-ethyl-2,4-dioxo-1,2,3,4-tetrahydroquinazolin-7-yl)methyl)piperazin-1-yl)picolinamide], 10 to 100 nM; as for `CNC(=O)c1ccc(N2CCN(Cc3ccc4c(=O)n(C)c(=O)[nH]c4c3)CC2)c(Cl)n1` [Example 98, 6-chloro-N-methyl-5-(4-((3-methyl-2,4-dioxo-1,2,3,4-tetrahydroquinazolin-7-yl)methyl)piperazin-1-yl)picolinamide], 100 to 1000 nM.
Next, `CNC(=O)c1ccc(N2CCN(Cc3ccc4c(=O)n(C)c(=O)[nH]c4c3)CC2)c(C)n1` [Example 99, N,6-dimethyl-5-(4-((3-methyl-2,4-dioxo-1,2,3,4-tetrahydroquinazolin-7-yl)methyl)piperazin-1-yl)picolinamide]: 10 to 100 nM; `CCNC(=O)c1ccc(N2CCN(Cc3ccc4c(=O)n(C)c(=O)[nH]c4c3)CC2)c(Cl)n1` [Example 100, 6-chloro-N-ethyl-5-(4-((3-methyl-2,4-dioxo-1,2,3,4-tetrahydroquinazolin-7-yl)methyl)piperazin-1-yl)picolinamide]: 100 to 1000 nM.
In turn, `CCNC(=O)c1ccc(N2CCN(Cc3ccc4c(=O)n(C)c(=O)[nH]c4c3)CC2)c(C)n1` [Example 101, N-ethyl-6-methyl-5-(4-((3-methyl-2,4-dioxo-1,2,3,4-tetrahydroquinazolin-7-yl)methyl)piperazin-1-yl)picolinamide] showed an IC50 of 100 to 1000 nM.
In turn, `CCNC(=O)c1ccc(N2CCN(Cc3cnc4c(=O)n(CC)c(=O)[nH]c4c3)CC2)c(Cl)n1` [Example 102, 6-chloro-N-ethyl-5-(4-((3-ethyl-2,4-dioxo-1,2,3,4-tetrahydropyrido[3,2-d]pyrimidin-7-yl)methyl)piperazin-1-yl)picolinamide] displayed a half-maximal inhibitory concentration (IC50) of 10 to 100 nM.
Regarding `CCNC(=O)c1ccc(N2CCN(Cc3cnc4c(=O)n(CC)c(=O)[nH]c4c3)CC2)c(C)n1` [Example 103, N-ethyl-5-(4-((3-ethyl-2,4-dioxo-1,2,3,4-tetrahydropyrido[3,2-d]pyrimidin-7-yl)methyl)piperazin-1-yl)-6-methylpicolinamide], the concentration for half-maximal inhibition (IC50) lay within 10 to 100 nM.
Molecule `CNC(=O)c1ccc(N2CCN(Cc3cc(F)c4c(=O)n(C)c(=O)[nH]c4c3)CC2)c(C)n1` [Example 105, 5-(4-((5-fluoro-3-methyl-2,4-dioxo-1,2,3,4-tetrahydroquinazolin-7-yl)methyl)piperazin-1-yl)-N,6-dimethylpicolinamide] returned a 50% inhibitory concentration (IC50) of 100 to 1000 nM.
Next, `CCn1c(=O)[nH]c2cc(CN3CCN(c4ccc(C(=O)NC)nc4OC)CC3)cnc2c1=O` [Example 109, 5-(4-((3-ethyl-2,4-dioxo-1,2,3,4-tetrahydropyrido[3,2-d]pyrimidin-7-yl)methyl)piperazin-1-yl)-6-methoxy-N-methylpicolinamide]: 100 to 1000 nM; `CCn1c(=O)[nH]c2cc(CN3CCN(c4ccc5cc[nH]c5c4)CC3)ccc2c1=O` [Example 110, 7-((4-(1H-indol-6-yl)piperazin-1-yl)methyl)-3-ethylquinazoline-2,4(1H,3H)-dione]: greater than 1000 nM; `CCn1c(=O)[nH]c2cc(CN3CCN(c4ccc5cn[nH]c5c4)CC3)ccc2c1=O` [Example 111, 7-((4-(1H-indazol-6-yl)piperazin-1-yl)methyl)-3-ethylquinazoline-2,4(1H,3H)-dione]: greater than 1000 nM.
`CCn1c(=O)[nH]c2cc(CN3CCN(c4ccc5[nH]ncc5c4)CC3)ccc2c1=O` [Example 112, 7-((4-(1H-indazol-5-yl)piperazin-1-yl)methyl)-3-ethylquinazoline-2,4(1H,3H)-dione] gave an IC50 greater than 1000 nM.
`CCNC(=O)c1ccc(N2CCN(Cc3ccc4c(c3)NC(=O)N(CC)C4)CC2)c(Cl)n1` [Example 118, 5-(4-((3-ethyl-2-oxo-1,2,3,4-tetrahydroquinazolin-7 yl)methyl)piperazin-1-yl)-6-chloro-N-ethylpicolinamide] displayed a concentration for half-maximal inhibition (IC50) of 10 to 100 nM.
As for `CCN1Cc2c(F)cc(CN3CCN(c4ccc(C(=O)NC)nc4Cl)CC3)cc2NC1=O` [Example 120, 6-chloro-5-(4-((3-ethyl-5-fluoro-2-oxo-1,2,3,4-tetrahydroquinazolin-7-yl)methyl)piperazin-1-yl)-N-methylpicolinamide], the figure is 10 to 100 nM; as for `CCNC(=O)c1ccc(N2CCN(Cc3cc(F)c4c(c3)NC(=O)N(CC)C4)CC2)c(C)n1` [Example 121, N-ethyl-5-(4-((3-ethyl-5-fluoro-2-oxo-1,2,3,4-tetrahydroquinazolin-7-yl)methyl)piperazin-1-yl)-6-methylpicolinamide], 10 to 100 nM; as for `CCNC(=O)c1ccc(N2CCN(Cc3cc(Cl)c4c(=O)n(CC)c(=O)[nH]c4c3)CC2)c(Cl)n1` [Example 126, 6-chloro-5-(4-((5-chloro-3-ethyl-2,4-dioxo-1,2,3,4-tetrahydroquinazolin-7-yl)methyl)piperazin-1-yl)-N-ethylpicolinamide], 1 to 10 nM.
In turn, `CCn1c(=O)[nH]c2cc(CN3CCN(c4ccc(C(=O)NC5CC5)nc4Cl)CC3)cc(Cl)c2c1=O` [Example 131, 6-chloro-5-(4-((5-chloro-3-ethyl-2,4-dioxo-1,2,3,4-tetrahydroquinazolin-7-yl)methyl)piperazin-1-yl)-N-cyclopropylpicolinamide] showed an IC50 of 1 to 10 nM.
As for `CCN1Cc2ccc(CN3CCN(c4ccc(C(=O)NC5CC5)nc4Cl)CC3)cc2NC1=O` [Example 132, 6-chloro-N-cyclopropyl-5-(4-((3-ethyl-2-oxo-1,2,3,4-tetrahydroquinazolin-7-yl)methyl)piperazin-1-yl)picolinamide], the IC50 was 1 to 10 nM.
For `CCN1Cc2c(F)cc(CN3CCN(c4ccc(C(=O)NC)nc4F)CC3)cc2NC1=O` [Example 134, 5-(4-((3-ethyl-5-fluoro-2-oxo-1,2,3,4-tetrahydroquinazolin-7-yl)methyl)piperazin-1-yl)-6-fluoro-N-methylpicolinamide], the IC50 is 10 to 100 nM.
